Test results taken from ChEMBL document CHEMBL5046254, “Mycobactin Analogues with Excellent Pharmacokinetic Profile Demonstrate Potent Antitubercular Specific Activity and Exceptional Efflux Pump Inhibition” (J Med Chem, 2022).
Converted amounts (≈) assume the structure as drawn. The source made the active and inactive calls. The rule behind the calls is not given here.

Legend:
RAW264.7 = assay: Cytotoxicity against mouse RAW264.7 cell assessed as inhibition of growth measured for 48 hrs by resazurin microtiter assay; assay type: functional
[1] = test system: Mycolicibacterium smegmatis; assay: Synergistic antibacterial activity against Mycobacterium smegmatis mc2155 ATCC 700084 assessed as fractional inhibitory concentration in presence of rifampicin by checker board assay; assay type: functional
THP-1 = assay: Cytotoxicity against human THP-1 cells assessed as inhibition of growth measured for 48 hrs by resazurin microtiter assay; assay type: functional
[2] = test system: Mycolicibacterium smegmatis; assay: Antibacterial activity against Mycobacterium smegmatic mc2155 ATCC 700084 assessed as inhibition of efflux pump using ethidium bromide as substrate measured every min for 45 mins; assay type: functional, organism-based
[3] = Tlast in Sprague-Dawley rat at 5 mg/kg, po; assay type: ADME, organism-based; conditions: in vivo
[4] = Cmax in Sprague-Dawley rat at 1 mg/kg, iv; assay type: ADME, organism-based; parameters: route intravenous, dose 1 mg/kg; conditions: in vivo
[5] = Cmax in Sprague-Dawley rat at 5 mg/kg, po; assay type: ADME, organism-based; parameters: route oral, dose 5 mg/kg; conditions: in vivo
Mycolicibacterium aurum [6] = assay: Antimycobacterial activity against Mycobacterium aurum ATCC 10437 infected in RAW264.7 cells assessed as inhibition of growth at 16 ug/ml incubated for 72 hrs by SPOTi assay; assay type: functional; parameters: scale not given: the % may be the effect or the level left; conditions: dose 16 µg/ml
[7] = target: T1, Salicyl-AMP ligase / salicyl-S-ArCP synthetase (Mycobacterium tuberculosis) (UniProt P71716); assay: Binding affinity to Mycobacterium tuberculosis MbtA assessed as change in thermal stability at 100 uM incubated for 1 hr in presence of ATP at pH 8.5 by thermo fluorometer analysis
T1 sequence (whole entry): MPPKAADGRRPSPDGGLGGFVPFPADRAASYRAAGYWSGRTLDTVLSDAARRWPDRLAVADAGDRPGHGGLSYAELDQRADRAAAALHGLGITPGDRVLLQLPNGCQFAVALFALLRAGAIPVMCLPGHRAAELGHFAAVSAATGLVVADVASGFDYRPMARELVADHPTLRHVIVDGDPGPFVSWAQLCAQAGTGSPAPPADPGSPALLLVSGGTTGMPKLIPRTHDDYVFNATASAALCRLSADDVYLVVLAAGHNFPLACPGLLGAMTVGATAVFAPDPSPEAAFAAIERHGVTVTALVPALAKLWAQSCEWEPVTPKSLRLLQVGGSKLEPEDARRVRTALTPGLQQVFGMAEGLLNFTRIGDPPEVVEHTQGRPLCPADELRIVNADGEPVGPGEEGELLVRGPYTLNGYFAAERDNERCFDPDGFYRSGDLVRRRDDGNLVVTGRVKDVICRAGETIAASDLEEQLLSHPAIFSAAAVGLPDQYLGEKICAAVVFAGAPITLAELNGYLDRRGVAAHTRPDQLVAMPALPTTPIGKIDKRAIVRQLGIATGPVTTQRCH

[8] = AUCinfinity in Sprague-Dawley rat at 5 mg/kg, po; assay type: ADME, organism-based; parameters: time infinity, route oral, dose 5 mg/kg; conditions: in vivo
[9] = test system: Mycolicibacterium smegmatis; assay: Antitubercular activity against Mycobacterium smegmatis mc2155 ATCC 700084 cultured in GAST media incubated for 24 hrs by resazurin microtiter assay; assay type: functional
[10] = test system: Mycobacterium tuberculosis; assay: microbe, parasite or virus in culture; conditions: H37Rv ATCC 27294, 192 h
[11] = Elimination half life in Sprague-Dawley rat at 1 mg/kg, iv; assay type: ADME, organism-based; conditions: in vivo, read-out: beta t1/2 (converted)
[12] = Selectivity index, ratio of GIC90 for Cytotoxicity against mouse RAW264.7 cells MIC90 for Antitubercular activity against Mycobacterium aurum ATCC 10437; assay type: toxicity, cell-based; conditions: read-out: Selectivity Index
[13] = Oral bioavailability in Sprague-Dawley rat at 5 mg/kg; assay type: ADME, organism-based; conditions: in vivo
[14] = test system: Mycolicibacterium smegmatis; assay: Bacteriostatic activity against Mycobacterium smegmatis mc2155 ATCC 700084 assessed as inhibition of bacterial growth preincubated for 48 hrs followed by agar surface scraped and transfer to GAST medium and measured after 5 days by HT-SPOTi assay; assay type: functional, organism-based; conditions: time 7.0 day
[15] = test system: Mycolicibacterium smegmatis; assay: Synergistic antibacterial activity against Mycobacterium smegmatis mc2155 ATCC 700084 assessed as fractional inhibitory concentration in presence of isoniazid by checker board assay; assay type: functional
[16] = Elimination half life in Sprague-Dawley rat at 5 mg/kg, po; assay type: ADME, organism-based; conditions: in vivo, read-out: beta t1/2 (converted)
[17] = Tlast in Sprague-Dawley rat at 1 mg/kg, iv; assay type: ADME, organism-based; conditions: in vivo
[18] = Selectivity index, ratio of GIC90 for Cytotoxicity against […] human THP-1 cells to MIC90 for Antitubercular activity against Mycobacterium bovis BCG ATCC 35734; assay type: toxicity, cell-based; conditions: read-out: Selectivity Index
[19] = Selectivity index, ratio of GIC90 for cytotoxicity against human THP-1 cells to MIC90 for Antitubercular activity against Mycobacterium smegmatis mc2155 ATCC 700084; assay type: toxicity, cell-based; conditions: read-out: Selectivity Index
[20] = test system: Mycolicibacterium smegmatis; assay: Antitubercular activity against Mycobacterium smegmatis mc2155 ATCC 700084 cultured in GAST-Fe media incubated for 24 hrs by resazurin microtiter assay; assay type: functional
Mycolicibacterium aurum [21] = assay: Antimycobacterial activity against Mycobacterium aurum ATCC 10437 cultured in GAST media incubated for 72 hrs by resazurin microtiter assay; assay type: functional
[22] = Hepatic clearance in Sprague-Dawley rat at 1 mg/kg, iv; assay type: ADME, organism-based, Liver; conditions: in vivo
[23] = Selectivity index, ratio of GIC90 for Cytotoxicity against human THP-1 cells to MIC90 for Antitubercular activity against Mycobacterium aurum ATCC 10437; assay type: toxicity, cell-based; conditions: read-out: Selectivity Index
[24] = test system: Mycobacterium tuberculosis; assay: microbe, parasite or virus in culture; conditions: H37Rv ATCC 27294, 192 h; remark: listed apart in the source
[25] = AUClast in Sprague-Dawley rat at 5 mg/kg, po; assay type: ADME, organism-based; parameters: time 0 - last, route oral, dose 5 mg/kg; conditions: in vivo
[26] = target: T1, Salicyl-AMP ligase / salicyl-S-ArCP synthetase (Mycobacterium tuberculosis); assay: Binding affinity to Mycobacterium tuberculosis MbtA assessed as change in thermal stability at 100 uM incubated for 1 hr in presence of ATP at pH 7.5 by thermo fluorometer analysis
[27] = AUClast in Sprague-Dawley rat at 1 mg/kg, iv; assay type: ADME, organism-based; parameters: route intravenous, time 0 - last, dose 1 mg/kg; conditions: in vivo
Mycolicibacterium aurum [28] = assay: Antimycobacterial activity against Mycobacterium aurum ATCC 10437 cultured in GAST-Fe media incubated for 72 hrs by resazurin microtiter assay; assay type: functional
[29] = Volume of distribution at steady state in Sprague-Dawley rat at 1 mg/kg, iv; assay type: ADME, organism-based; conditions: in vivo
[30] = test system: Mycolicibacterium smegmatis; assay: Antibacterial activity against Mycobacterium smegmatis mc2155 ATCC 700084 cultured in iron supplemented medium assessed as inhibition of siderophore production at 4 ug/ml measured after 3 hrs by CAS assay relative to control; assay type: functional; parameters: scale not given: the % may be the effect or the level left; conditions: dose 4 µg/ml
[31] = Selectivity index, ratio of GIC90 for Cytotoxicity against mouse RAW264.7 cells to MIC90 for Antitubercular activity against Mycobacterium bovis BCG ATCC 35734; assay type: toxicity, cell-based; conditions: read-out: Selectivity Index
[32] = AUCinfinity in Sprague-Dawley rat at 1 mg/kg, iv; assay type: ADME, organism-based; parameters: time infinity, route intravenous, dose 1 mg/kg; conditions: in vivo
[33] = Selectivity index, ratio of GIC90 for cytotoxicity against mouse RAW264.7 cells to MIC90 for Antitubercular activity against Mycobacterium smegmatis mc2155 ATCC 700084; assay type: toxicity, cell-based; conditions: read-out: Selectivity Index
[34] = test system: Mycolicibacterium smegmatis; assay: Bactericidal activity against Mycobacterium smegmatis mc2155 ATCC 700084 assessed as inhibition of bacterial growth preincubated for 48 hrs followed by agar surface scraped and transfer to GAST medium and measured after 5 days by HT-SPOTi assay; assay type: functional, organism-based; conditions: time 7.0 day

Row | SMILES | GI90 (RAW264.7) [µg/mL] | FIC [1] | GI90 (THP-1) [µg/mL] | Activity [2] | Tlast [3] [h] | Cmax [4] [ng/mL] | Cmax [5] [ng/mL] | Activity (Mycolicibacterium aurum [6]) [%] | Tm [7] [°C] | AUC(0-inf) [8] [ng·h/mL] | MIC90 [9] [µg/mL] | MIC90 [10] [µg/mL] | half-life [11] [min] | selectivity ratio [12] | bioavailability [13] [%] | FIC [15] | half-life [16] [min] | Tlast [17] [h] | selectivity ratio [18] | selectivity ratio [19] | also measured
1 | Oc1ccccc1C1=NNC(c2ccc(Br)cc2)C1 (stereo not given) | 128 (≈ 404 µM) | 1.12 | 64 (≈ 202 µM) | Active | 24 | 505 | 47.4 | 90 | 2.5 | 184 | 4 (≈ 12.6 µM) | 128 (≈ 404 µM) | 325 | 8 | 22 | 0.6 | 319 | 12 | 16 | 16 | Activity [14]: Active; MIC90 [20]: 64 µg/mL (≈ 202 µM); MIC90 (Mycolicibacterium aurum [21]): 8 µg/mL (≈ 25.2 µM); CLH [22]: 100 mL/min/kg; selectivity ratio [23]: 8; MIC90 [24]: 8 µg/mL (≈ 25.2 µM); AUC(0-t) [25]: 167 ng·h/mL; Tm [26]: 2 °C; AUC(0-t) [27]: 155 ng·h/mL; MIC90 (Mycolicibacterium aurum [28]): 128 µg/mL (≈ 404 µM); Vdss [29]: 17.3 kg/L; Activity [30]: 51.76%; selectivity ratio [31]: 16; AUC(0-inf) [32]: 167 ng·h/mL; selectivity ratio [33]: 32
2 | Oc1ccccc1C1=NNC(c2ccc(Cl)cc2)C1 (stereo not given) | 128 (≈ 469 µM) | 1.12 | 64 (≈ 235 µM) | Active | 24 | 448 | 51.6 | 90 | 2 | 215 | 4 (≈ 14.7 µM) | 128 (≈ 469 µM) | 286 | 8 | 21 | 0.6 | 364 | 12 | 16 | 16 | MIC90 [20]: 64 µg/mL (≈ 235 µM); MIC90 (Mycolicibacterium aurum [21]): 16 µg/mL (≈ 58.7 µM); CLH [22]: 84.8 mL/min/kg; selectivity ratio [23]: 8; MIC90 [24]: 16 µg/mL (≈ 58.7 µM); AUC(0-t) [25]: 203 ng·h/mL; Tm [26]: 2 °C; AUC(0-t) [27]: 190 ng·h/mL; MIC90 (Mycolicibacterium aurum [28]): 128 µg/mL (≈ 469 µM); Activity [34]: Active; Vdss [29]: 11.5 kg/L; Activity [30]: 54.7%; selectivity ratio [31]: 16; AUC(0-inf) [32]: 197 ng·h/mL; selectivity ratio [33]: 32
